Reference: US20210045385A1, “PYRIDAZINONE-SUBSTITUTED KETOXIMES AS HERBICIDES” (FMC Corporation, priority 2018, published 2021)

How the values were obtained:
Type in all cases: in vivo
[1] = tested on: Italian ryegrass (Lolium multiflorum); assay: Test A preemergence, visual plant response rating; conditions: for Ryegrass, Italian plant response rating: 125 g ai/ha, preemergence, 0 to 100 scale, 0 no effect, 100 complete control; for Ryegrass, Italian plant response rating (0 to 100 scale): 500 g ai/ha Preemergence, approx. 10 days
In short: (§1)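 Compared with untreated controls, treated plants received a visual injury score on a 0–100 scale around 10 days after application. The compound, in a non-phytotoxic solvent with surfactant, was given as a preemergence soil spray or postemergence at the one- to two-leaf stage.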

[2] = tested on: barnyardgrass (Echinochloa crus-galli); assay: Test A preemergence, visual plant response rating; conditions: for Barnyardgrass plant response rating: 125 g ai/ha, preemergence, 0 to 100 scale, 0 no effect, 100 complete control; for Barnyardgrass plant response rating (0 to 100 scale): 500 g ai/ha Preemergence, approx. 10 days
In short: as §1

[3] = tested on: foxtail, giant (giant foxtail, Setaria faberii); assay: Test A preemergence, visual plant response rating; conditions: for Foxtail, Giant plant response rating: 125 g ai/ha, preemergence, 0 to 100 scale, 0 no effect, 100 complete control; for Foxtail, Giant plant response rating (0 to 100 scale): 500 g ai/ha Preemergence, approx. 10 days
In short: as §1

kochia (Kochia scoparia) [4] = assay: Test A preemergence, visual plant response rating; conditions: for Kochia plant response rating: 125 g ai/ha, preemergence, 0 to 100 scale, 0 no effect, 100 complete control; for Kochia plant response rating (0 to 100 scale): 500 g ai/ha Preemergence, approx. 10 days
In short: as §1

[5] = tested on: pigweed (Amaranthus retroflexus); assay: Test A preemergence, visual plant response rating; conditions: for Pigweed plant response rating: 125 g ai/ha, preemergence, 0 to 100 scale, 0 no effect, 100 complete control; for Pigweed plant response rating (0 to 100 scale): 500 g ai/ha Preemergence, approx. 10 days
In short: as §1

[6] = tested on: ragweed (common ragweed, Ambrosia elatior); assay: Test A preemergence, visual plant response rating; conditions: for Ragweed plant response rating: 125 g ai/ha, preemergence, 0 to 100 scale, 0 no effect, 100 complete control; for Ragweed plant response rating (0 to 100 scale): 500 g ai/ha Preemergence, approx. 10 days
In short: as §1

[7] = tested on: Italian ryegrass (Lolium multiflorum); assay: Test A postemergence, visual plant response rating; conditions: for Ryegrass, Italian plant response rating (0 to 100 scale): 500 g ai/ha, postemergence, 0 is no effect, 100 is complete control; for Ryegrass, Italian plant response rating: Postemergence, 125 g ai/ha, 0 to 100 scale (0 no effect, 100 complete control)
In short: as §1

[8] = tested on: barnyardgrass (Echinochloa crus-galli); assay: Test A postemergence, visual plant response rating; conditions: for Barnyardgrass plant response rating (0 to 100 scale): 500 g ai/ha, postemergence, 0 is no effect, 100 is complete control; for Barnyardgrass plant response rating: Postemergence, 125 g ai/ha, 0 to 100 scale (0 no effect, 100 complete control)
In short: as §1

[9] = tested on: blackgrass (Alopecurus myosuroides); assay: Test A postemergence, visual plant response rating; conditions: for Blackgrass plant response rating (0 to 100 scale): 500 g ai/ha, postemergence, 0 is no effect, 100 is complete control; for Blackgrass plant response rating: Postemergence, 125 g ai/ha, 0 to 100 scale (0 no effect, 100 complete control)
In short: as §1

corn (Zea mays) = assay: Test A postemergence, visual plant response rating; conditions: for Corn plant response rating (0 to 100 scale): 500 g ai/ha, postemergence, 0 is no effect, 100 is complete control; for Corn plant response rating: Postemergence, 125 g ai/ha, 0 to 100 scale (0 no effect, 100 complete control)
In short: as §1

[10] = tested on: foxtail, giant (giant foxtail, Setaria faberii); assay: Test A postemergence, visual plant response rating; conditions: for Foxtail, Giant plant response rating (0 to 100 scale): 500 g ai/ha, postemergence, 0 is no effect, 100 is complete control; for Foxtail, Giant plant response rating: Postemergence, 125 g ai/ha, 0 to 100 scale (0 no effect, 100 complete control)
In short: as §1

[11] = tested on: galium (catchweed bedstraw, Galium aparine); assay: Test A postemergence, visual plant response rating; conditions: for Galium plant response rating (0 to 100 scale): 500 g ai/ha, postemergence, 0 is no effect, 100 is complete control; for Galium plant response rating: Postemergence, 125 g ai/ha, 0 to 100 scale (0 no effect, 100 complete control)
In short: as §1

kochia (Kochia scoparia) [12] = assay: Test A postemergence, visual plant response rating; conditions: for Kochia plant response rating (0 to 100 scale): 500 g ai/ha, postemergence, 0 is no effect, 100 is complete control; for Kochia plant response rating: Postemergence, 125 g ai/ha, 0 to 100 scale (0 no effect, 100 complete control)
In short: as §1

[13] = tested on: pigweed (Amaranthus retroflexus); assay: Test A postemergence, visual plant response rating; conditions: for Pigweed plant response rating (0 to 100 scale): 500 g ai/ha, postemergence, 0 is no effect, 100 is complete control; for Pigweed plant response rating: Postemergence, 125 g ai/ha, 0 to 100 scale (0 no effect, 100 complete control)
In short: as §1

[14] = tested on: ragweed (common ragweed, Ambrosia elatior); assay: Test A postemergence, visual plant response rating; conditions: for Ragweed plant response rating (0 to 100 scale): 500 g ai/ha, postemergence, 0 is no effect, 100 is complete control; for Ragweed plant response rating: Postemergence, 125 g ai/ha, 0 to 100 scale (0 no effect, 100 complete control)
In short: as §1

[15] = tested on: wheat (Triticum aestivum); assay: Test A postemergence, visual plant response rating; conditions: for Wheat plant response rating (0 to 100 scale): 500 g ai/ha, postemergence, 0 is no effect, 100 is complete control; for Wheat plant response rating: Postemergence, 125 g ai/ha, 0 to 100 scale (0 no effect, 100 complete control)
In short: as §1

[16] = tested on: barnyardgrass (Echinochloa crus-galli); assay: Test B flooded paddy test, visual plant response rating; conditions: 250 g ai/ha, Flood, applied to paddy water, 2-leaf stage, evaluated after 13 to 15 days
In short: (§2)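 Greenhouse paddy conditions applied: two-leaf plants, a 3 cm flood above the soil surface maintained throughout, and compound added to the water rather than the foliage. Plants were judged visually against controls at 13 to 15 days.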

[17] = tested on: ducksalad (Heteranhera limosa); assay: as above; conditions: 250 g ai/ha, Flood, applied to paddy water, 2-leaf stage, evaluated after 13 to 15 days
In short: as §2

rice (Oryza sativa) = assay: as above; conditions: 250 g ai/ha, Flood, applied to paddy water, 2-leaf stage, evaluated after 13 to 15 days
In short: as §2

[18] = tested on: sedge, umbrella (small-flower umbrella sedge, Cyperus difformis); assay: as above; conditions: 250 g ai/ha, Flood, applied to paddy water, 2-leaf stage, evaluated after 13 to 15 days
In short: as §2

SMILES	Ryegrass, Italian plant response rating [1]	Ryegrass, Italian plant response rating (0 to 100 scale) [1]	Barnyardgrass plant response rating [2]	Barnyardgrass plant response rating (0 to 100 scale) [2]	Foxtail, Giant plant response rating [3]	Foxtail, Giant plant response rating (0 to 100 scale) [3]	Kochia plant response rating (kochia (Kochia scoparia) [4])	Kochia plant response rating (0 to 100 scale) (kochia (Kochia scoparia) [4])	Pigweed plant response rating [5]	Pigweed plant response rating (0 to 100 scale) [5]	Ragweed plant response rating [6]	Ragweed plant response rating (0 to 100 scale) [6]	Ryegrass, Italian plant response rating (0 to 100 scale) [7]	Ryegrass, Italian plant response rating [7]	Barnyardgrass plant response rating (0 to 100 scale) [8]	Barnyardgrass plant response rating [8]	Blackgrass plant response rating (0 to 100 scale) [9]	Blackgrass plant response rating [9]	Corn plant response rating (0 to 100 scale) (corn (Zea mays))	Corn plant response rating (corn (Zea mays))	also measured
CON=C(c1c(O)c(C)nn(C)c1=O)c1cccc2ccc(Cl)cc12 [Compound 110]	60	70	70	80	60	100	0	10	50	100	40	90	80	30	70	50	90	90	30	10	Foxtail, Giant plant response rating (0 to 100 scale) [10]: 90; Foxtail, Giant plant response rating [10]: 50; Galium plant response rating (0 to 100 scale) [11]: 100; Galium plant response rating [11]: 90; Kochia plant response rating (0 to 100 scale) (kochia (Kochia scoparia) [12]): 60; Kochia plant response rating (kochia (Kochia scoparia) [12]): 50; Pigweed plant response rating (0 to 100 scale) [13]: 100; Pigweed plant response rating [13]: 90; Ragweed plant response rating (0 to 100 scale) [14]: 90; Ragweed plant response rating [14]: 60; Wheat plant response rating (0 to 100 scale) [15]: 0; Wheat plant response rating [15]: 0; Plant response rating, Barnyardgrass (0 to 100 scale, 0 is no effect, 100 is complete control) [16]: 0; Plant response rating, Ducksalad (0 to 100 scale, 0 is no effect, 100 is complete control) [17]: 0; Plant response rating, Rice (0 to 100 scale, 0 is no effect, 100 is complete control) (rice (Oryza sativa)): 0; Plant response rating, Sedge, Umbrella (0 to 100 scale, 0 is no effect, 100 is complete control) [18]: 0
CCO/N=C(/c1c(O)c(C)nn(C)c1=O)c1cc(Br)cc2ccccc12 [Compound 113, 4-[(E)-(3-bromo-1-naphthalenyl)(ethoxyimino)methyl]-5-hydroxy-2,6-dimethyl-3(2H)-pyridazinone]	80	100	90	100	100	100	30	90	80	100	90	90	90	80	90	90	100	90	80	40	Foxtail, Giant plant response rating (0 to 100 scale) [10]: 90; Foxtail, Giant plant response rating [10]: 90; Galium plant response rating (0 to 100 scale) [11]: 100; Galium plant response rating [11]: 100; Kochia plant response rating (0 to 100 scale) (kochia (Kochia scoparia) [12]): 90; Kochia plant response rating (kochia (Kochia scoparia) [12]): 60; Pigweed plant response rating (0 to 100 scale) [13]: 100; Pigweed plant response rating [13]: 100; Ragweed plant response rating (0 to 100 scale) [14]: 100; Ragweed plant response rating [14]: 90; Wheat plant response rating (0 to 100 scale) [15]: 60; Wheat plant response rating [15]: 50; Plant response rating, Barnyardgrass (0 to 100 scale, 0 is no effect, 100 is complete control) [16]: 85; Plant response rating, Ducksalad (0 to 100 scale, 0 is no effect, 100 is complete control) [17]: 75; Plant response rating, Rice (0 to 100 scale, 0 is no effect, 100 is complete control) (rice (Oryza sativa)): 60; Plant response rating, Sedge, Umbrella (0 to 100 scale, 0 is no effect, 100 is complete control) [18]: 50
